US20130281397A1, “TREATMENT OF DISEASES BY EPIGENETIC REGULATION” (RVX Therapeutics Inc., priority 2012, published 2013)
Counter-ions that a name gives are not always drawn.

Assays:
Brd4 bromodomain 1 = biological target: T1, Brd4 bromodomain 1 (Homo sapiens, UniProt O60885); assay: Inhibition of binding of tetra-acetylated histone H4 and Brd4 bromodomain 1 by TR-FRET; conditions: His-tagged bromodomain 200 nM, biotinylated tetra-acetylated histone H4 peptide 25-50 nM, 2 hours at room temperature
T1 construct: made in house; host or cells: E. coli BL21(DE3)
Experimental: Proteins were cloned and overexpressed with a N-terminal 6×His tag, then purified by nickel affinity followed by size exclusion chromatography. Briefly, E. coli BL21(DE3) cells were transformed with a recombinant expression vector encoding N-terminally […] tagged bromodomains from Brd2, Brd3, or Brd4. Cell cultures were incubated at 37° C. with shaking to the appropriate density and induced overnight with IPTG. The supernatant of lysed cells was loaded onto Ni-IDA column for purification. Eluted protein was pooled, concentrated and further purified by size exclusion chromatography. Fractions representing monomeric protein were pooled, concentrated, aliquoted, and frozen at −80° C. for use in subsequent experiments.
For inhibition assays, serially diluted test compound was added to these reactions in a 0.2% final concentration of DMSO. Final buffer concentrations were 30 mM HEPES pH 7.4, 30 mM NaCl, 0.3 mM CHAPS, 20 mM phosphate pH 7.0, 320 mM KF, 0.08% BSA). […] The binding inhibitory activity was shown by a decrease in 665 nm fluorescence relative to 620 nm. IC50 values were determined from a dose response curve.

FRET activity (<50 uM) (Brd4 bromodomain 1) | melting point | Structure (SMILES)
Inactive | 269 to 271 °C | COc1cc(OC)c2c(=O)[nH]c(-c3ccc(N(C)C)c4ccccc34)nc2c1 [Example 32, 2-(4-(dimethylamino)naphthalen-1-yl)-5,7-dimethoxyquinazolin-4(3H)-one]
Active | 245 to 247 °C | COc1cc(OC)c2c(=O)[nH]c(-c3ccc(O)cc3)cc2c1 [Example 3, 3-(4-hydroxyphenyl)-6,8-dimethoxyisoquinolin-1(2H)-one]
Active | 275 to 277 °C | COc1cc(OC)c2c(=O)[nH]c(-c3ccc(OCC(=O)O)c(OC)c3)nc2c1 [Example 97, 2-(4-(5,7-dimethoxy-4-oxo-3,4-dihydroquinazolin-2-yl)-2-methoxyphenoxy)acetic acid]
Inactive | 316.4 to 318.2 °C | COc1cc2nc(-c3ccc4c(c3)OCCO4)[nH]c(=O)c2cc1OC [Example 43, 2-(2,3-dihydrobenzo[b][1,4]dioxin-6-yl)-6,7-dimethoxyquinazolin-4(3H)-one]
Inactive | 267 to 268 °C (dec.) | O=c1[nH]c(-c2ccc3c(c2)OCCO3)nc2ccccc12 [Example 31, 2-(2,3-dihydrobenzo[b][1,4]dioxin-6-yl)quinazolin-4(3H)-one]
Inactive | 270 to 272 °C | COc1cc(OC)cc(-c2nc3cc(OC)cc(OC)c3c(=O)[nH]2)c1 [Example 24, 2-(3,5-dimethoxyphenyl)-5,7-dimethoxyquinazolin-4(3H)-one]
Active | 190 to 192 °C | COc1cc(OC)c2c(=O)[nH]c(-c3cc(C)c(NC(=O)CO)c(C)c3)nc2c1 [Example 55, N-(4-(5,7-dimethoxy-4-oxo-3,4-dihydroquinazolin-2-yl)-2,6-dimethylphenyl)-2-hydroxyacetamide]
Active | 294 to 296 °C | COc1cc(OC)c2c(=O)[nH]c(-c3ccc(O)c(OC)c3)nc2c1 [Example 26, 2-(4-hydroxy-3-methoxyphenyl)-5,7-dimethoxyquinazolin-4(3H)-one]
Inactive | 287 to 288 °C (dec.) | COc1cc(OC)c2c(=O)[nH]c(-c3ccc(OCCO)c(Cl)c3)nc2c1 [Example 51, 2-(3-chloro-4-(2-hydroxyethoxy)phenyl)-5,7-dimethoxyquinazolin-4(3H)-one]
Inactive | 318 to 319 °C | COc1cc(OC)c2c(=O)[nH]c(-c3ccc(NC(=O)CO)cc3)nc2c1 [Example 60, N-(4-(5,7-dimethoxy-4-oxo-3,4-dihydroquinazolin-2-yl)phenyl)-2-hydroxyacetamide]
Inactive | 260 to 261 °C | Cc1cc(-c2nc3ccccc3c(=O)[nH]2)cc(C)c1OCCO [Example 30, 2-(4-(2-hydroxyethoxy)-3,5-dimethylphenyl)quinazolin-4(3H)-one]
Active | 249 to 251 °C | COc1cc(OC)c2c(=O)[nH]c(-c3ccc(N(CCO)CCO)cc3)nc2c1 [Example 41, 2-(4-(bis(2-hydroxyethyl)amino)phenyl)-5,7-dimethoxyquinazolin-4(3H)-one]
Inactive | 336.5 °C (dec.) | CC(=O)Nc1ccc2nc(-c3cc(C)c(O)c(C)c3)[nH]c(=O)c2c1 [Example 49, N-(2-(4-hydroxy-3,5-dimethylphenyl)-4-oxo-3,4-dihydroquinazolin-6-yl)acetamide]
Inactive | 276 to 277 °C | COc1ccc(-c2nc3cc(OC)cc(OC)c3c(=O)[nH]2)cc1 [Example 25, 5,7-dimethoxy-2-(4-methoxyphenyl)quinazolin-4(3H)-one]
Active | 250.6 to 251.1 °C | COc1cc(OC)c2c(=O)[nH]c(-c3ccc(CCC(=O)O)cc3)nc2c1 [Example 48, 3-(4-(5,7-dimethoxy-4-oxo-3,4-dihydroquinazolin-2-yl)phenyl)propanoic acid]
Active | > 300 °C | COc1cc2nc(-c3cc(C)c(O)c(C)c3)[nH]c(=O)c2cc1OC [Example 47, 2-(4-hydroxy-3,5-dimethylphenyl)-6,7-dimethoxyquinazolin-4(3H)-one]
Active | 201 to 202 °C | COCCOc1c(C)cc(-c2nc3cc(OC)cc(OC)c3c(=O)[nH]2)cc1C [Example 73, 5,7-dimethoxy-2-(4-(2-methoxyethoxy)-3,5-dimethylphenyl)quinazolin-4(3H)-one]

FRET activity (<50 uM) (Brd4 bromodomain 1) | melting point | Structure (SMILES)
Active | 188.5 to 189.1 °C | COc1cc(OC)c2c(=O)nc(-c3cc(C)c(O)c(C)c3)n(C)c2c1 [Example 66, 2-(4-hydroxy-3,5-dimethylphenyl)-5,7-dimethoxy-1-methylquinazolin-4(1H)-one]
– | 195 to 198 °C | COc1cc(OC)c2c(=O)[nH]c(-c3cc(C)c(OCCN4CCN(C)CC4)c(C)c3)cc2c1 (as salt: hydrochloride) [Example 18, 3-(3,5-dimethyl-4-(2-(4-methylpiperazin-1-yl)ethoxy)phenyl)-6,8-dimethoxyisoquinolin-1(2H)-one]
Inactive | 277.5 to 278.5 °C | NC(=O)COc1ccc(-c2nc3ccccc3c(=O)[nH]2)cc1 [Example 36, 2-(4-(4-oxo-3,4-dihydroquinazolin-2-yl)phenoxy)acetamide]
Inactive | 285 to 287 °C | O=C(O)COc1ccc(-c2nc3ccccc3c(=O)[nH]2)cc1 [Example 34, 2-(4-(4-oxo-3,4-dihydroquinazolin-2-yl)phenoxy)acetic acid]
– | 268 to 270 °C | COc1cc2nc(-c3ccc(N(CCO)CCO)cc3)[nH]c(=O)c2cc1OC [Example 42, 2-(4-(bis(2-hydroxyethyl)amino)phenyl)-6,7-dimethoxyquinazolin-4(3H)-one]
– | > 324 °C | COc1cc(OC)c2c(=O)[nH]c(-c3cc(C)c(O)c(C)c3)cc2n1 (as salt: HCl) [Example 13, 7-(4-hydroxy-3,5-dimethylphenyl)-2,4-dimethoxy-1,6-naphthyridin-5(6H)-one]
Active | 262 to 263 °C (dec.) | COc1cc(OC)c2c(=O)[nH]c(-c3cc(C)c(OC)c(C)c3)cc2n1 [Example 58, 2,4-dimethoxy-7-(4-methoxy-3,5-dimethylphenyl)-1,6-naphthyridin-5(6H)-one]
– | 281 to 283 °C | Cc1cc(-c2cc3ccc(CN4CCOCC4)cc3c(=O)[nH]2)cc(C)c1O (as salt: hydrochloride) [Example 8, 3-(4-hydroxy-3,5-dimethylphenyl)-7-(morpholinomethyl)isoquinolin-1(2H)-one]
Inactive | > 300 °C | COc1cc2nc(-c3cc(C)c(OCCO)c(C)c3)[nH]c(=O)c2cc1OC [Example 53, 2-(4-(2-hydroxyethoxy)-3,5-dimethylphenyl)-6,7-dimethoxyquinazolin-4(3H)-one]
Active | 307.5 to 309.6 °C | COc1cc(OC)c2c(=O)[nH]c(-c3ccc4c(c3)OCCO4)nc2c1 [Example 37, 2-(2,3-dihydrobenzo[b][1,4]dioxin-6-yl)-5,7-dimethoxyquinazolin-4(3H)-one]
Active | 309 to 311 °C | COc1cc(OC)c2c(=O)[nH]c(-c3ccc(OCC(N)=O)cc3)nc2c1 [Example 33, 2-(4-(5,7-dimethoxy-4-oxo-3,4-dihydroquinazolin-2-yl)phenoxy)acetamide]
Active | 206 to 208 °C | Cc1cc(-c2cc3nc(OC(C)C)cc(OC(C)C)c3c(=O)[nH]2)cc(C)c1O [Example 69, 7-(4-hydroxy-3,5-dimethylphenyl)-2,4-diisopropoxy-1,6-naphthyridin-5(6H)-one]
– | > 350 °C | Cc1cc(-c2cc3ncccc3c(=O)[nH]2)cc(C)c1O (as salt: HCl) [Example 5, 7-(4-hydroxy-3,5-dimethylphenyl)-1,6-naphthyridin-5(6H)-one]
– | > 330 °C | COc1cc(O)nc2cc(-c3cc(C)c(O)c(C)c3)[nH]c(=O)c12 (as salt: hydrochloride) [Example 9, 2-hydroxy-7-(4-hydroxy-3,5-dimethylphenyl)-4-methoxy-1,6-naphthyridin-5(6H)-one]
– | 235.5 to 236.5 °C | COc1cc2nc(-c3ccc(N(C)C)c4ccccc34)[nH]c(=O)c2cc1OC [Example 39]
– | 278 to 280 °C (dec.) | CCN1CCN(Cc2ccc(-c3nc4cc(OC)cc(OC)c4c(=O)[nH]3)cc2)CC1 (as salt: hydrochloride) [Example 62, 2-(4-((4-ethylpiperazin-1-yl)methyl)phenyl)-5,7-dimethoxyquinazolin-4(3H)-one]
– | 300 to 302 °C | Cc1cc(-c2nc3ccccc3c(=O)[nH]2)cc(C)c1OCCN1CCOCC1 (as salt: hydrochloride) [Example 29, 2-(3,5-dimethyl-4-(2-morpholinoethoxy)phenyl)quinazolin-4(3H)-one]
